# Test results as given in patent US20210062263A1, “A CLINICAL […]” (priority 2016, published 2021).
# Legend:
# Assay type in all cases: in vivo, mice
# dorsal skin wound [1] = test: Histopathological measurements of skin wounds
# Method: (§1) Implants were prepared by cutting medical grade Silastic (polydimethylsiloxane) tubing (1.5 mm inner diameter, 2.3 mm outer diameter, Aunet Pty Ltd, WA, Australia) to the desired length (1 cm long) and sealing one end with Multi-Purpose Sealant (Dow Corning RTV Sealant). After 24 hours each tube was packed with either crystalline testosterone (Sigma #T-1500) or left empty (vehicle implant). The open end was then sealed and implants were allowed to dry for at least 24 hours prior to surgical implantation. The implant size was considered to be the length of tubing containing testosterone. Prior to subcutaneous insertion, implants were sterilized in absolute ethanol for 10 minutes which also removed any androgen adhering to its external surface. Each testosterone or vehicle implant was inserted subcutaneously via a 5-mm nape incision in intact and castrated male mice three weeks before the wound healing experiments and the incision site was closed with 5/0 sutures.
# (§2) Under anesthesia, the dorsal flanks of each 9 weeks old mouse (n=6/group) were carefully shaved and cleansed with 70% v/v ethanol. To create wounds, full-thickness, parasagittal linear incisions (1 cm long) were made through the skin and underlying the panniculus carnosus muscle on each flank and each wound was closed using two 5/0 silk sutures placed 3 mm from each end of the wound. Post operatively, all animals received analgesia to minimize pain, were allowed to recover on a heated pad and then housed in groups of four animals per cage. Incisions were examined and assessed on days 3, 5, 7 and post-wounding.
# (§3) Following exsanguination, anesthetized animals were killed by cervical dislocation. Full-thickness specimens of the skin wound, consisting of the entire wound scar surrounded by a border of about 3-mm, were excized and bisected. Half of each sample was frozen at −80° C. and the other half was fixed in 4% v/v paraformaldehyde (Sigma-Aldrich, NSW, Australia) and processed for histology. Unwounded skin was obtained from the dorsum of the trunk near the tail of each animal to determine protein levels.
# Transverse histological sections (5 μm) of skin from the center of each wound were stained with hematoxylin and eosin (H&E) [Harris' Hematoxylin, 1% v/v Eosin, Amber Scientific, Midvale, Wash., Australia] and analyzed by light microscopy. All histological analyses were performed blind without knowledge of the identity of each specimen. Histological sections were scanned for assessment using Aperio ScanScope AT Turbo Scanner (Aperio, CA, USA) and the electronic slides (eSlides) were visualized and analyzed using Aperio ImageScope.
# Wound width was calculated by measuring the distance between the unwounded dermis margins at the epidermis-dermis junction (Gilliver et al. (2008) endocrinology 149(11):5747-5757). When the width was <0.2 mm, the wound was considered closed. Reepithelialization was assessed using the following scoring method: 0, absent; 1, present, covering <50% of the wound; 2, present, covering >50% and <100% of the wound; 3, present, covering 100% with irregular thickness; 4, present, covering 100% with regular thickness (Steed et al. (1997) 77(3):575-586). To determine epidermal hyperplasia, the mean distance between the stratum granulosum and the epidermal-dermal junction of each wound site was calculated (10 measurements per section, using a 10× objective). Unwounded skin was used as control.
# Sections from day 7 and day 14 wounds were also stained with Masson's trichrome to highlight connective tissue. The area of granulation tissue was measured by defining the area located between the basal surface of the epidermis and the panniculus carnosus below. Collagen orientation was assessed using the following scoring method: 1, basket-weave fibers; 2, basket-weave >parallel fibers; 3, parallel fibers >basket-weave fibers; 4, parallel fibers (Ashcroft and Mills (2002) J Clin Invest 110(5):615-624).
# IL-6 = test: Cutaneous IL-6 levels (ELISA) after wounding
# Method: Frozen samples of wounded and unwounded skin were homogenized (Janke & Kunkel Ultraturrax T25 homogenizer, IKA Labortechnik, Staufen, Germany) in 1% v/v protease inhibitor (Calbiochem, San Diego, Calif.) and the homogenates were centrifuged at 4° C. to remove debris prior to assay.
# Cutaneous levels of IL-6 and TNF-α were measured in skin samples using ELISAs according to the manufacturer's instructions (R&D Systems Inc, MN, USA). The sensitivity of the IL-6 ELISA was 5.97 pg/ml; the intra-assay variation was of 3.4% and the inter-assay variation was 4.1%. Mouse recombinant was used as a standard for the TNF-α assay; the sensitivity of the ELISA was 9.04 pg/ml; the intra-assay variation was of 12.8% and the inter-assay variation was 12.7%. The concentrations are expressed per mg of tissue (wet weight).
# [2] = Reproductive organ weights (seminal vesicle, epididymis); settings: castrated males, testosterone replacement
# Excerpt: Six week-old male mice were castrated under anesthesia three weeks prior to the studies on wound healing. The testes were gently pushed through the inguinal canal into the abdominal cavity and exposed through a small (0.5 cm) ventral midline abdominal incision. Each testis was gently dissected from its epididymis and removed after ligation of the testicular vasculature. All incisions were closed using two interrupted 5/0 silk sutures (Johnson & Johnson Medical, NSW, Australia).
# as §1, with “Each testosterone or vehicle implant was inserted subcutaneously via a 5-mm nape incision in intact and castrated male mice three weeks before the wound healing experiments and the incision site was closed with 5/0 sutures.” left out
# dorsal skin wound [3] = test: Macroscopic evaluation of dorsal skin wounds
# Method: as §1
# as §2, with “Post operatively, all animals received analgesia to minimize pain, were allowed to recover on a heated pad and then housed in groups of four animals per cage.” left out
# Digital images of each dorsal skin wound were obtained with a standardized focal distance, aperture and exposure time using a Nikon D5000 camera (Nikon, Tokyo, Japan) immediately after the initial incision and at 3, 5, 7 and 14 days post-wounding. Wound areas were measured within the wound margins and the pixel areas were calculated using Adobe Photoshop CS5 (version 12.0, Adobe Systems Inc). The area of erythema was measured in all groups at 3 days and 5 days post-wounding and the area of the wound was measured in all groups at all time-points.
# follistatin = test: Cutaneous follistatin levels (RIA) after wounding
# Excerpt: as §2
# as §3, with “levels. […]” for “levels.”
# Serum and skin follistatin levels were measured by RIA using human recombinant follistatin 288 as standard and as tracer following labeling with I^125 (O'Conner et al. (1999) Hum Reprod 14(3):827-832). […]
structure (smiles),measurement,setting,value
C[C@]12CC[C@H]3[C@@H](CCC4=CC(=O)CC[C@@]43C)[C@@H]1CC[C@@H]2O [testosterone],collagen fiber orientation,"dorsal skin wound [1]; castrated males treated with testosterone, day 14 post-wounding",predominant parallel orientation
same,wound width,"dorsal skin wound [1]; castrated males, testosterone replacement vs castrated group, days 3 and 5 post-wounding",significantly increased wound widths
same,re-epithelialization,"dorsal skin wound [1]; castrated+T group, day 5 post-wounding",re-epithelialization was complete
same,epidermal thickness,"dorsal skin wound [1]; castrated+T group, days 3, 5 and 7 post-wounding",increased thickness of the epidermis
same,wound width,"dorsal skin wound [1]; intact males treated with testosterone vs intact group, day 3 post-wounding",decreased wound width
same,wound closure (summary),dorsal skin wound [1]; male mice,delayed wound closure
same,cutaneous IL-6 relative to castrated group,"IL-6; castrated males, testosterone replacement, day 3 post-wounding",twice
same,cutaneous IL-6 relative to intact male group,"IL-6; intact males treated with testosterone, day 3 post-wounding",almost twice
same,basal IL-6 levels in skin,"IL-6; intact males treated with testosterone, unwounded skin",increased basal IL-6 levels
same,size and weight of the epididymis,[2],0.05±0.02
same,size and weight of the seminal vesicle,[2],0.42±0.02
same,wound area,"dorsal skin wound [3]; castrated animals treated with testosterone vs vehicle, days 3 and 5 post-wounding",increased wound area
same,scabs on wound surface,"dorsal skin wound [3]; castrated males, testosterone replaced",scabs were observed at both days 3 and 5
same,area of erythema,"dorsal skin wound [3]; castrated+T males, day 3 post-wounding",0.42±0.03 cm2
same,follistatin levels in skin,"follistatin; castrated testosterone replacement group vs vehicle group, day 3 post-wounding",significantly higher
same,follistatin levels in skin,follistatin; intact males given testosterone vs intact males that received vehicle,significantly lower
